Test results published in patent publication US20090143285A1, “TARGET PROTEIN AND TARGET GENE FOR DRUG DISCOVERY AND SCREENING METHOD” (REVERSE PROTEOMICS RESEARCH INSTITUTE CO., LTD., priority 2005, published 2009).
Numbering of substitutions follows the chain as printed. “Also recorded” adds a separate entry of the source.

Experiments:
[1] = molecular target: T1, FLJ38897-derived protein (Homo sapiens, UniProt P57764); assay: SEC/MS interaction analysis, FLJ38897-derived protein (GSDMDC1); format: binding; details: spin column method; mixture with protein vs buffer solution alone; data not shown
T1 construct: His-tag (N); made in house; host or cells: Escherichia coli BL21star(DE3)pLysS
T1 sequence (P57764 265-484): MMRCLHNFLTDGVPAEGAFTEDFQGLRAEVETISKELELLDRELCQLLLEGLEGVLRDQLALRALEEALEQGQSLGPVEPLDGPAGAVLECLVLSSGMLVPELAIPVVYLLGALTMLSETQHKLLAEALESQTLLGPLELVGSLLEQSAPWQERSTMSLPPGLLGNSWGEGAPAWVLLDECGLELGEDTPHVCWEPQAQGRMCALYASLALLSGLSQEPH
From the text: (§1) To analyze the interactions between commonly used drugs and proteins expressed from human full-length cDNA clones while keeping both the proteins and the compounds in non-modified, non-immobilized state, size exclusion chromatography (SEC) and mass analysis were used in combination. The specific procedures are shown below.
(§2) The compound-protein mixture prepared in step 1 was subjected to chromatography using an SEC column, the compound and the protein were separated by SEC, and the compound that interacted with the bound compound or protein contained in the protein fraction was analyzed using a mass analyzer.
(§3) Protein concentrations were measured using BCA Protein Assay (PIERCE), in consideration of the purity calculated by SDS-PAGE.
(§4) Mass analysis was performed using LCQ DECA XP (Thermoelectron) or Q-TOF micro (Micromass), equipped with an ESI probe. The LC pump used was Agilent 1100 (Yokogawa Analytical Systems), and the autosampler used was HTC-PAL (CTC Analytics) equipped with a cooling stacker. The SEC column used was a micro-LC column or a 384-well spin column. […]
(§5) In the 384-well spin column method, Unifilter 100 (Whatman), packed with 10 μL (dry volume) of Bio-Gel P6 (BIO-RAD) and swollen with milliQ water, was used as the SEC column. […] The SEC spin column was mounted on an acetonitrile-aliquoted 384-well U-bottom plate and centrifuged; the SEC spin column filtrate, which is a protein fraction, was recovered in 50% acetonitrile. The protein precipitate produced by the acetonitrile was removed via centrifugation and filtration for deproteinization; the resulting filtrate was concentrated by centrifugal concentration and re-dissolved in 10 μL of 50% methanol to obtain a mass analysis sample. The mobile phase supplied to the mass analyzer was 0.1% formic acid/50% methanol solution in the positive ion mode, and 0.1% ammonia/50% methanol solution in the negative ion mode; these mobile phases were used at a flow rate of 40 μL/min. 2-μL of mass analysis samples were injected using an autosampler at 2-minute intervals; the mass spectral intensity of the compound was measured to retrieve the spectral intensity of the pharmaceutical compound contained in the SEC spin column filtrate (protein fraction eluted from SEC).

[2] = system: FLJXXXXX-derived proteins; assay: SEC/MS spin column interaction analysis of FLJXXXXX-derived proteins and various compounds (Tables 30-1 to 30-4); format: binding, human; details: SEC spin column filtrate, spectral intensity increased with doses of compound and protein
[3] = molecular target: T2, FLJ41991-derived protein (Homo sapiens, UniProt P57764, E293G); assay: SEC/MS interaction analysis, FLJ41991-derived protein (GSDMDC1); format: binding; details: for interaction judged from spectrum intensity of the compound in the SEC spin column filtrate (protein fraction eluted from SEC): spin column method, doses of both compound and protein varied
T2 construct: His-tag (N); made in house; host or cells: Escherichia coli BL21star(DE3)pLysS (pDEST17)
T2 sequence (P57764 265-484 E293G): T1 sequence (P57764 265-484) with E29G
From the text: as §1, §2, §3, §4, §5

[4] = compound 12.5 μM, protein 10 μM
[5] = compound 12.5 μM, protein 25 μM
[6] = compound 62.5 μM, protein 10 μM
[7] = compound 62.5 μM, protein 25 μM

Compound	interaction judged from mass spectrum peak intensity of the compound in the spin column filtrate [1]	FLJ No of the derived protein with which the compound was judged to exhibit a concentration-dependent interaction [2]	spectrum intensity of the compound in the SEC spin column filtrate ([3]; compound 12.5 μM, protein 0 μM)	spectrum intensity of the compound in the SEC spin column filtrate ([3]; compound 12.5 μM, protein 5 μM)	spectrum intensity of the compound in the SEC spin column filtrate [3, 4]	spectrum intensity of the compound in the SEC spin column filtrate [3, 5]	spectrum intensity of the compound in the SEC spin column filtrate ([3]; compound 25 μM, protein 0 μM)	spectrum intensity of the compound in the SEC spin column filtrate ([3]; compound 25 μM, protein 5 μM)	spectrum intensity of the compound in the SEC spin column filtrate ([3]; compound 25 μM, protein 10 μM)	spectrum intensity of the compound in the SEC spin column filtrate ([3]; compound 25 μM, protein 25 μM)	spectrum intensity of the compound in the SEC spin column filtrate ([3]; compound 62.5 μM, protein 0 μM)	spectrum intensity of the compound in the SEC spin column filtrate ([3]; compound 62.5 μM, protein 5 μM)	spectrum intensity of the compound in the SEC spin column filtrate [3, 6]	spectrum intensity of the compound in the SEC spin column filtrate [3, 7]	interaction judged from spectrum intensity of the compound in the SEC spin column filtrate (protein fraction eluted from SEC) [3]
OC(c1cc(C(F)(F)F)nc2c(C(F)(F)F)cccc12)C1CCCCN1 (stereo not drawn) [mefloquine]	there was an interaction	FLJ37909; also recorded: FLJ38897; also recorded: FLJ41991	16334	46239	101775	453818	27931	100287	273106	1788847	97153	528117	2017157	4385022	concentration-dependent interaction
OCCN1CCN(CCCN2c3ccccc3Sc3ccc(Cl)cc32)CC1 [perphenazine]	there was an interaction	FLJ38897; also recorded: FLJ41991	23424	43607	83672	314285	38186	71806	229107	799962	35061	208220	695158	2872912	concentration-dependent interaction
OCCN1CCN(CCCN2c3ccccc3Sc3ccc(C(F)(F)F)cc32)CC1 [fluphenazine]	there was an interaction	FLJ38897; also recorded: FLJ41991	87861	162795	434899	1101486	193639	276524	843648	1778376	200313	1055670	3173659	6405132	concentration-dependent interaction
